Calls of active or inactive are those of the source. No cut-off for these calls is given here.
Experiments:
[1] = molecular target: T1, PPAR delta/gamma (Homo sapiens) (UniProt P37231+Q03181); test: Activation of […] in human HaCaT cells assessed as inhibition of cellular proliferation at 10 uM after 72 hrs; assay type: cell-based
[2] = molecular target: T1, PPAR delta/gamma (Homo sapiens); test: Activation of […] in human HaCaT cells assessed as induction of ANGPTL4 expression by PCR; assay type: cell-based

T1 sequence (P37231 whole entry, looked up): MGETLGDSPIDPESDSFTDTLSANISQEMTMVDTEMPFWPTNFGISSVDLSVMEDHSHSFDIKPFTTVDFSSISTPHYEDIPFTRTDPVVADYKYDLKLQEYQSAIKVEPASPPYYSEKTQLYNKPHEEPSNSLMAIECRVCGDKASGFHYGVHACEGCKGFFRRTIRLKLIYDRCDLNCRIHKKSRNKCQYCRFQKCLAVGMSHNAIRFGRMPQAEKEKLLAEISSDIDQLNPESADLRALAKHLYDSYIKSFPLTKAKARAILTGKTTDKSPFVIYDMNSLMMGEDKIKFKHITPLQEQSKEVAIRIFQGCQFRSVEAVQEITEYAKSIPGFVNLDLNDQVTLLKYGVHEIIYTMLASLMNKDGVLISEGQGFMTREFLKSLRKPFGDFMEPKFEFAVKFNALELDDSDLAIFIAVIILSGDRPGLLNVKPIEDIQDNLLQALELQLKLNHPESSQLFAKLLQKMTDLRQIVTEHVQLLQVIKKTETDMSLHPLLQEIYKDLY
T1 sequence (Q03181 whole entry, looked up): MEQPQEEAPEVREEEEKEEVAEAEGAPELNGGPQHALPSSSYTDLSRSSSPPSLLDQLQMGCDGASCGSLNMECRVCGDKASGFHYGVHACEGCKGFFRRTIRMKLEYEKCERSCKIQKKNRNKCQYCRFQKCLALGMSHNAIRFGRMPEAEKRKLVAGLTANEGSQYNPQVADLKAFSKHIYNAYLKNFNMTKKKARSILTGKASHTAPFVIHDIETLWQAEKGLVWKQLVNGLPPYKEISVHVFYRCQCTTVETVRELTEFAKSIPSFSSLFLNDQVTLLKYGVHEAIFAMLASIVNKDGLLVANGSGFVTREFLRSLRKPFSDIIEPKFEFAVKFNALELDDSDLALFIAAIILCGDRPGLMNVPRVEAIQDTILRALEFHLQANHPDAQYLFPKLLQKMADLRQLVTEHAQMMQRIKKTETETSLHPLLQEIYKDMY

For Cc1cc([Se]Cc2sc(-c3ccc(C(F)(F)F)cc3)nc2C)ccc1OCC(=O)O, the Activity [1] was “Active” and the Activity [2] was “Active”.

Reference: ChEMBL document CHEMBL1177826, “Synthesis of isosteric selenium analog of the PPARbeta/delta agonist GW501516 and comparison of biological activity” (Bioorg Med Chem Lett, 2010)
